Reference: ChEMBL document CHEMBL1641588, “3-[Benzimidazo- and 3-[benzothiadiazoleimidazo-(1,2-c)quinazolin-5-yl]-2H-chromene-2-ones as potent antimicrobial agents” (2011)
Converted amounts (≈) assume the structure as drawn.

system: Candida albicans; assay: Antifungal activity against Candida albicans at 1000 ug/mL after 72 hrs by agar diffusion assay; assay type: functional; conditions: read-out: IZ

SMILES	zone of inhibition at 1000 µg/mL [mm]
O=c1oc2c(Br)cc(Br)cc2cc1-c1nc2ccccc2c2nc3ccccc3n12	41
Cc1cccc2cc(-c3nc4ccccc4c4nc5ccccc5n34)c(=O)oc12	32
O=c1oc2ccc([N+](=O)[O-])cc2cc1-c1nc2ccccc2c2nc3ccccc3n12	27
O=c1oc2ccccc2cc1-c1nc2ccccc2c2nc3c4nsnc4ccc3n12	26

system: Streptococcus pyogenes; assay: Antibacterial activity against Streptococcus pyogenes by liquid dilution method; assay type: functional; conditions: not given

MIC [µg/mL]	SMILES
20 (≈ 38.4 µM)	O=c1oc2c(Br)cc(Br)cc2cc1-c1nc2ccccc2c2nc3ccccc3n12
45 (≈ 119 µM)	Cc1cccc2cc(-c3nc4ccccc4c4nc5ccccc5n34)c(=O)oc12
40 (≈ 97.9 µM)	O=c1oc2ccc([N+](=O)[O-])cc2cc1-c1nc2ccccc2c2nc3ccccc3n12
45 (≈ 107 µM)	O=c1oc2ccccc2cc1-c1nc2ccccc2c2nc3c4nsnc4ccc3n12

system: Staphylococcus aureus; assay: Antibacterial activity against Staphylococcus aureus at 1000 ug/mL after 72 hrs by agar diffusion assay; assay type: functional; conditions: read-out: IZ

SMILES	zone of inhibition at 1000 µg/mL [mm]
O=c1oc2c(Br)cc(Br)cc2cc1-c1nc2ccccc2c2nc3ccccc3n12	39
Cc1cccc2cc(-c3nc4ccccc4c4nc5ccccc5n34)c(=O)oc12	32
O=c1oc2ccc([N+](=O)[O-])cc2cc1-c1nc2ccccc2c2nc3ccccc3n12	24
O=c1oc2ccccc2cc1-c1nc2ccccc2c2nc3c4nsnc4ccc3n12	31

system: Salmonella typhimurium; assay: Antibacterial activity against Salmonella Typhimurium at 1000 ug/mL after 72 hrs by agar diffusion assay; assay type: functional, Salmonella enterica subsp. enterica serovar Typhimurium; conditions: Salmonella enterica, read-out: IZ

SMILES	zone of inhibition at 1000 µg/mL [mm]
O=c1oc2c(Br)cc(Br)cc2cc1-c1nc2ccccc2c2nc3ccccc3n12	36
Cc1cccc2cc(-c3nc4ccccc4c4nc5ccccc5n34)c(=O)oc12	35
O=c1oc2ccc([N+](=O)[O-])cc2cc1-c1nc2ccccc2c2nc3ccccc3n12	32
O=c1oc2ccccc2cc1-c1nc2ccccc2c2nc3c4nsnc4ccc3n12	24

system: Escherichia coli; assay: Antibacterial activity against Escherichia coli by liquid dilution method; assay type: functional; conditions: not given

MIC [µg/mL]	SMILES
15 (≈ 28.8 µM)	O=c1oc2c(Br)cc(Br)cc2cc1-c1nc2ccccc2c2nc3ccccc3n12
40 (≈ 106 µM)	Cc1cccc2cc(-c3nc4ccccc4c4nc5ccccc5n34)c(=O)oc12
30 (≈ 73.5 µM)	O=c1oc2ccc([N+](=O)[O-])cc2cc1-c1nc2ccccc2c2nc3ccccc3n12
45 (≈ 107 µM)	O=c1oc2ccccc2cc1-c1nc2ccccc2c2nc3c4nsnc4ccc3n12

system: Streptococcus pyogenes; assay: Antibacterial activity against Streptococcus pyogenes at 1000 ug/mL after 72 hrs by agar diffusion assay; assay type: functional; conditions: read-out: IZ

SMILES	zone of inhibition at 1000 µg/mL [mm]
O=c1oc2c(Br)cc(Br)cc2cc1-c1nc2ccccc2c2nc3ccccc3n12	36
Cc1cccc2cc(-c3nc4ccccc4c4nc5ccccc5n34)c(=O)oc12	24
O=c1oc2ccc([N+](=O)[O-])cc2cc1-c1nc2ccccc2c2nc3ccccc3n12	28
O=c1oc2ccccc2cc1-c1nc2ccccc2c2nc3c4nsnc4ccc3n12	22

system: Escherichia coli; assay: Antibacterial activity against Escherichia coli at 1000 ug/mL after 72 hrs by agar diffusion assay; assay type: functional; conditions: read-out: IZ

SMILES	zone of inhibition at 1000 µg/mL [mm]
O=c1oc2c(Br)cc(Br)cc2cc1-c1nc2ccccc2c2nc3ccccc3n12	41
Cc1cccc2cc(-c3nc4ccccc4c4nc5ccccc5n34)c(=O)oc12	32
O=c1oc2ccc([N+](=O)[O-])cc2cc1-c1nc2ccccc2c2nc3ccccc3n12	35
O=c1oc2ccccc2cc1-c1nc2ccccc2c2nc3c4nsnc4ccc3n12	26

system: Aspergillus niger; assay: Antifungal activity against Aspergillus niger at 1000 ug/mL after 72 hrs by agar diffusion assay; assay type: functional; conditions: read-out: IZ

SMILES	zone of inhibition at 1000 µg/mL [mm]
O=c1oc2c(Br)cc(Br)cc2cc1-c1nc2ccccc2c2nc3ccccc3n12	48
Cc1cccc2cc(-c3nc4ccccc4c4nc5ccccc5n34)c(=O)oc12	27
O=c1oc2ccc([N+](=O)[O-])cc2cc1-c1nc2ccccc2c2nc3ccccc3n12	29
O=c1oc2ccccc2cc1-c1nc2ccccc2c2nc3c4nsnc4ccc3n12	22

system: Salmonella typhimurium; assay: Antibacterial activity against Salmonella Typhimurium by liquid dilution method; assay type: functional, Salmonella enterica subsp. enterica serovar Typhimurium; conditions: Salmonella enterica

MIC [µg/mL]	SMILES
30 (≈ 57.6 µM)	O=c1oc2c(Br)cc(Br)cc2cc1-c1nc2ccccc2c2nc3ccccc3n12
20 (≈ 53 µM)	Cc1cccc2cc(-c3nc4ccccc4c4nc5ccccc5n34)c(=O)oc12
25 (≈ 61.2 µM)	O=c1oc2ccc([N+](=O)[O-])cc2cc1-c1nc2ccccc2c2nc3ccccc3n12
30 (≈ 71.2 µM)	O=c1oc2ccccc2cc1-c1nc2ccccc2c2nc3c4nsnc4ccc3n12

system: Klebsiella pneumoniae; assay: Antibacterial activity against Klebsiella pneumoniae at 1000 ug/mL after 72 hrs by agar diffusion assay; assay type: functional; conditions: read-out: IZ

SMILES	zone of inhibition at 1000 µg/mL [mm]
O=c1oc2c(Br)cc(Br)cc2cc1-c1nc2ccccc2c2nc3ccccc3n12	38
Cc1cccc2cc(-c3nc4ccccc4c4nc5ccccc5n34)c(=O)oc12	31
O=c1oc2ccc([N+](=O)[O-])cc2cc1-c1nc2ccccc2c2nc3ccccc3n12	29
O=c1oc2ccccc2cc1-c1nc2ccccc2c2nc3c4nsnc4ccc3n12	27

system: Bacillus subtilis; assay: Antibacterial activity against Bacillus subtilis at 1000 ug/mL after 72 hrs by agar diffusion assay; assay type: functional; conditions: read-out: IZ

SMILES	zone of inhibition at 1000 µg/mL [mm]
O=c1oc2c(Br)cc(Br)cc2cc1-c1nc2ccccc2c2nc3ccccc3n12	34
Cc1cccc2cc(-c3nc4ccccc4c4nc5ccccc5n34)c(=O)oc12	30
O=c1oc2ccc([N+](=O)[O-])cc2cc1-c1nc2ccccc2c2nc3ccccc3n12	27
O=c1oc2ccccc2cc1-c1nc2ccccc2c2nc3c4nsnc4ccc3n12	32

system: Aspergillus flavus; assay: Antifungal activity against Aspergillus flavus at 1000 ug/mL after 72 hrs by agar diffusion assay; assay type: functional; conditions: read-out: IZ

SMILES	zone of inhibition at 1000 µg/mL [mm]
O=c1oc2c(Br)cc(Br)cc2cc1-c1nc2ccccc2c2nc3ccccc3n12	46
Cc1cccc2cc(-c3nc4ccccc4c4nc5ccccc5n34)c(=O)oc12	35
O=c1oc2ccc([N+](=O)[O-])cc2cc1-c1nc2ccccc2c2nc3ccccc3n12	30
O=c1oc2ccccc2cc1-c1nc2ccccc2c2nc3c4nsnc4ccc3n12	35

system: Klebsiella pneumoniae; assay: Antibacterial activity against Klebsiella pneumoniae by liquid dilution method; assay type: functional; conditions: not given

MIC [µg/mL]	SMILES
35 (≈ 67.2 µM)	O=c1oc2c(Br)cc(Br)cc2cc1-c1nc2ccccc2c2nc3ccccc3n12
30 (≈ 79.5 µM)	Cc1cccc2cc(-c3nc4ccccc4c4nc5ccccc5n34)c(=O)oc12
40 (≈ 97.9 µM)	O=c1oc2ccc([N+](=O)[O-])cc2cc1-c1nc2ccccc2c2nc3ccccc3n12
35 (≈ 83 µM)	O=c1oc2ccccc2cc1-c1nc2ccccc2c2nc3c4nsnc4ccc3n12

system: Bacillus subtilis; assay: Antibacterial activity against Bacillus subtilis by liquid dilution method; assay type: functional; conditions: not given

MIC [µg/mL]	SMILES
50 (≈ 95.9 µM)	O=c1oc2c(Br)cc(Br)cc2cc1-c1nc2ccccc2c2nc3ccccc3n12
45 (≈ 119 µM)	Cc1cccc2cc(-c3nc4ccccc4c4nc5ccccc5n34)c(=O)oc12
10 (≈ 24.5 µM)	O=c1oc2ccc([N+](=O)[O-])cc2cc1-c1nc2ccccc2c2nc3ccccc3n12
50 (≈ 119 µM)	O=c1oc2ccccc2cc1-c1nc2ccccc2c2nc3c4nsnc4ccc3n12

system: Aspergillus flavus; assay: Antifungal activity against Aspergillus flavus by liquid dilution method; assay type: functional; conditions: not given

MIC [µg/mL]	SMILES
15 (≈ 28.8 µM)	O=c1oc2c(Br)cc(Br)cc2cc1-c1nc2ccccc2c2nc3ccccc3n12
35 (≈ 92.7 µM)	Cc1cccc2cc(-c3nc4ccccc4c4nc5ccccc5n34)c(=O)oc12
45 (≈ 110 µM)	O=c1oc2ccc([N+](=O)[O-])cc2cc1-c1nc2ccccc2c2nc3ccccc3n12
35 (≈ 83 µM)	O=c1oc2ccccc2cc1-c1nc2ccccc2c2nc3c4nsnc4ccc3n12

system: Aspergillus niger; assay: Antifungal activity against Aspergillus niger by liquid dilution method; assay type: functional; conditions: not given

MIC [µg/mL]	SMILES
20 (≈ 38.4 µM)	O=c1oc2c(Br)cc(Br)cc2cc1-c1nc2ccccc2c2nc3ccccc3n12
50 (≈ 132 µM)	Cc1cccc2cc(-c3nc4ccccc4c4nc5ccccc5n34)c(=O)oc12
45 (≈ 110 µM)	O=c1oc2ccc([N+](=O)[O-])cc2cc1-c1nc2ccccc2c2nc3ccccc3n12
40 (≈ 94.9 µM)	O=c1oc2ccccc2cc1-c1nc2ccccc2c2nc3c4nsnc4ccc3n12

system: Staphylococcus aureus; assay: Antibacterial activity against Staphylococcus aureus by liquid dilution method; assay type: functional; conditions: not given

MIC [µg/mL]	SMILES
40 (≈ 76.8 µM)	O=c1oc2c(Br)cc(Br)cc2cc1-c1nc2ccccc2c2nc3ccccc3n12
30 (≈ 79.5 µM)	Cc1cccc2cc(-c3nc4ccccc4c4nc5ccccc5n34)c(=O)oc12
35 (≈ 85.7 µM)	O=c1oc2ccc([N+](=O)[O-])cc2cc1-c1nc2ccccc2c2nc3ccccc3n12
50 (≈ 119 µM)	O=c1oc2ccccc2cc1-c1nc2ccccc2c2nc3c4nsnc4ccc3n12

system: Candida albicans; assay: Antifungal activity against Candida albicans by liquid dilution method; assay type: functional; conditions: not given

MIC [µg/mL]	SMILES
15 (≈ 28.8 µM)	O=c1oc2c(Br)cc(Br)cc2cc1-c1nc2ccccc2c2nc3ccccc3n12
45 (≈ 119 µM)	Cc1cccc2cc(-c3nc4ccccc4c4nc5ccccc5n34)c(=O)oc12
50 (≈ 122 µM)	O=c1oc2ccc([N+](=O)[O-])cc2cc1-c1nc2ccccc2c2nc3ccccc3n12
45 (≈ 107 µM)	O=c1oc2ccccc2cc1-c1nc2ccccc2c2nc3c4nsnc4ccc3n12
